# Values quoted from earlier work, collected in patent publication US6747006B2, “Use of GLP-1 or analogs in treatment of myocardial infarction” (Eli Lilly and Company, priority 1996, dated 2004).
# Test system: diabetic patients during acute myocardial infarction
# Conditions: insulin and glucose infusion, then subcutaneous multidose insulin; compared with control group of diabetics without insulin treatment
substance,measurement,value
Insulin: insulin given as control by continuous infusion or subcutaneous injection,lowering of mortality during the year following myocardial infarction,30%
